Test results: PubChem BioAssay (NCI)
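Compound exposure: 48 hours, 5 concentrations, 96-well plates. TGI: total growth inhibition.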

Assays:
Assay in all cases: NCI tumour cell line growth inhibition, 48 h
[1] = system: RXF 393 renal
[2] = system: NCI-H226 lung
[3] = system: HCT-116 colon
[4] = system: SNB-19 CNS
[5] = system: OVCAR-4 ovarian
[6] = system: SK-MEL-28 melanoma
[7] = system: TK-10 renal
[8] = system: LOX IMVI melanoma
[9] = system: SF-268 CNS
[10] = system: M14 melanoma

SMILES | TGI [1] [µM] | TGI [2] [µM] | TGI [3] [µM] | TGI [4] [µM] | TGI [5] [µM] | TGI [6] [µM] | TGI [7] [µM] | TGI [8] [µM] | TGI [9] [µM] | TGI [10] [µM]
Nc1ccc(S(=O)(=O)Nc2nccs2)cc1 | > 100 | > 100 | > 100 | > 100 | > 100 | > 100 | > 100 | > 100 | > 100 | > 100
CCOC(=O)NC(Nc1cccc(C(F)(F)F)c1)(C(F)(F)F)C(F)(F)F | > 100 | > 100 | > 100 | > 100 |  | > 100 | > 100 | > 100 | > 100 | > 100
Cc1ccc2c(c1)C(=O)C1(C2)Cc2cccc(C)c2C1=O (stereo not given) | > 100 | > 100 | > 100 | > 100 | > 100 | > 100 | > 100 | > 100 | > 100 | > 100
O=C(N/N=C/c1cc(Br)cc(Br)c1[O-])c1ccccc1O.O=C(N/N=C/c1cc(Br)cc(Br)c1[O-])c1ccccc1O.[Cu+2] | 0.926 | 1.98 |  | 2.28 | 0.56 | 2.01 | 1.58 | 1.61 | 2.51 | 1.05
COc1ccc2c(cnc3c4cc(OC)c(OC)cc4ccc23)c1 | > 100 | > 100 | > 100 | > 100 | > 100 | > 100 | > 100 | > 100 | > 100 | > 100
C=C(Cl)C(C)(Cl)CCC(Br)C(C)(C)Cl (stereo not given) | 30.3 | > 100 | 29.5 | > 100 | 33.1 | 48.1 | > 100 | 28 | > 100 | 34.7
COC1C=COC2(C)Oc3c(C)c(O)c4c(O)c(c(C5SCCS5)c(O)c4c3C2=O)NC(=O)C(C)=C/C=C\C(C)C2OC(C)(C)OC(C2C)C(C)C(OC(C)=O)C1C (stereo not given) | 30 | 22.1 | > 100 | > 100 | 54.7 | > 100 | 24.8 | 28.3 | 29.3 | > 100
NNC(=O)CSc1nc2ccccc2c(=O)n1N | 95.5 | > 100 | > 100 | 44.6 | > 100 | > 100 | 40.9 | > 100 | > 100 | > 100
C=C([C@@]1(O)C[C@H]2[C@H](CCC2(OC)OC)[C@@H]2c3ccccc3O[C@@H]21)[Si](C)(C)C |  | > 100 | > 100 | > 100 | > 100 | > 100 | > 100 | > 100 | > 100 | > 100
COc1ccc(N2C(=O)CSC2c2c[nH]c3ccccc23)cc1 (stereo not given) | > 100 |  | > 100 | > 100 | > 100 | > 100 | > 100 | > 100 | > 100 | > 100
COc1ccc2cc(C(C)C(=O)N3CCOC3=O)ccc2c1 (stereo not given) | > 100 | > 100 | > 100 | > 100 | > 100 | > 100 | > 100 | > 100 | > 100 | > 100
CC(C)CC(O)P(=O)(O)O (stereo not given) | > 100 | > 100 | > 100 | > 100 | > 100 | > 100 | > 100 |  |  | > 100
CCN1CCC(O)(/C=C/c2ccc(C)cc2C)C(C(=O)/C=C/c2ccc(C)cc2C)C1 (stereo not given) | 14.3 | 7.79 |  | 20.3 | 7.99 | 10.9 | 3.41 | 3.71 | 9.12 | 35.7
CN1[C@@H]2C[C@@H](OC(=O)[C@H](CO)c3ccccc3)C[C@H]1[C@@H]1O[C@@H]12 | > 100 | > 100 | > 100 |  | > 100 | > 100 | > 100 | > 100 |  | > 100
Cc1ccc(S(=O)(=O)NC(=O)N[C@@H](Cc2cnc[nH]2)C(=O)O)cc1 | > 100 |  | > 100 | > 100 | > 100 | > 100 | > 100 | > 100 | > 100 | > 100
COc1c(C(C)C)cc2c3c1OC(=O)[C@@]31CCCC(C)(C)C1CC2 (stereo not given in full) | 56.3 | 44.4 | 29.1 | 51.8 |  | > 100 | 99.8 | > 100 | > 100 | > 100
O=C(CN(c1ccccc1)c1ccccc1)n1nnc2ccccc21 | > 100 | > 100 | 84.7 | > 100 |  | > 100 | > 100 | 70.3 | > 100 | > 100
CCC(=O)ONC(=O)Cn1ccc([N+](=O)[O-])n1 | > 100 | > 100 | > 100 | > 100 |  | > 100 | > 100 | > 100 | > 100 | > 100
Cc1cc(NCc2ccccc2)c2ccccc2[n+]1CCCCCCCCCC[n+]1c(C)cc(NCc2ccccc2)c2ccccc21 | 12.9 |  | 1.45 | > 100 | > 100 | 2.16 | 3.17 |  | 2.45 | 3.22
COc1cccc(/C=N/n2c(C)n[nH]c2=O)c1 | > 100 | > 100 | > 100 | > 100 | > 100 | > 100 |  |  | > 100 | > 100
O=C(O)/C=c1/c2ccccc2n2nc3ccccc3c12 | > 100 |  | 90.7 | 87.3 | 70.1 | > 100 | > 100 | 78 | > 100 | > 100
Cc1cc(S(=O)(=O)Nc2nc3cc(-c4ccc(Cl)cc4)sc3c(=O)n2N)c(S)cc1Cl | > 100 |  | > 100 | > 100 | > 100 | > 100 | > 100 | > 100 | > 100 | > 100
COc1cc(OC)c(C2c3cc4c(cc3OC(N3CCCC3)C2C)OCO4)c(OC)c1 (stereo not given) |  |  | 16.7 | 51.1 |  | 46.2 | > 100 | 28.4 | 40.3 | 28.6

SMILES | TGI [1] [µM] | TGI [2] [µM] | TGI [3] [µM] | TGI [4] [µM] | TGI [5] [µM] | TGI [6] [µM] | TGI [7] [µM] | TGI [8] [µM] | TGI [9] [µM] | TGI [10] [µM]
CC(C)(Cl)C(Br)CCC(=CCCl)CBr (mixture of isomers) | 7.57 | 45 | 3.67 | 6.87 | 5.31 | 5.65 | 5.21 |  | 4.21 | 4.05
[N-]=[N+]=NC1=C(c2ccccn2)C(=O)c2cccc3cccc1c23 | > 100 |  | > 100 | > 100 | > 100 | > 100 | > 100 | > 100 | 65.9 | > 100
COc1ccc(C2COc3cc(O)c(O)cc3C2)cc1 (stereo not given) | 20.3 | 213 | 42.1 | 214 | 45.6 | 32.9 |  | 500 | 127 | 
Nc1ccn(C2OC(CO)C(O)C2O)c(=O)c1 (stereo not given) | > 625 | > 625 | > 625 | > 625 | > 625 | > 625 |  | 446 | > 625 | 
Cn1c(COC(=O)Nc2ccccc2)c(COC(=O)Nc2ccccc2)c2ccc3cc(Cl)c(Cl)cc3c21 | 39.5 | 54.7 | 38.5 | > 75 |  | 41.4 | 22.7 | 13.5 | 21.9 | 19.6
O=C(O)c1ccc(OCc2nc3cc(C(F)(F)F)ccc3nc2-c2ccccc2)cc1 | > 100 | > 100 | > 100 | > 100 |  | > 100 | > 100 | > 100 | > 100 | > 100
CC1=NNC(=O)C1C(CC(=O)c1c[nH]c2ccccc12)C(=O)O (stereo not given) | > 100 | > 100 | > 100 | > 100 |  | > 100 | > 100 | > 100 | > 100 | > 100
O=c1c(C(c2ccc(Cl)cc2)c2c(O)c3ccccc3n(-c3ccccc3)c2=O)c(O)c2ccccc2n1-c1ccccc1 | > 100 | > 100 | > 100 | > 100 | > 100 | > 100 | > 100 | > 100 | > 100 | 
O=C1C(=Cc2ccccc2O)N=C(c2ccccc2)N1n1c(-c2ccccc2)nc2ccccc2c1=O |  | 79 | 89.8 | > 100 |  | > 100 | > 100 | > 100 | 88.3 | 57.1
COc1cc2c3c(c1OC)C1(C=CC(=O)C=C1)C[C@H]3N(C)CC2 | > 100 | > 100 | > 100 | > 100 |  | > 100 | > 100 | > 100 | > 100 | > 100
CSc1sc2ccccc2[s+]1 | > 100 | > 100 | > 100 | > 100 | > 100 |  | > 100 | > 100 | > 100 | > 100
COc1ccc2c(c1)CCN1CCc3ccccc3CC21 (stereo not given) |  | 83.5 | > 100 | > 100 | > 100 | 98.5 | > 100 | 58.1 | > 100 | 36.6
C=CCOc1ccc(C2(O)c3ccccc3C3=NCCCN32)cc1 (stereo not given) |  | > 100 | > 100 | > 100 | > 100 | 59.3 | > 100 | > 100 | > 100 | 35.1
CC(=O)O[C@]12CCCCCC1C1(O)C(O)CCCC[C@H]12 (stereo not given in full) | > 100 | > 100 |  | > 100 | > 100 | > 100 | > 100 | > 100 | > 100 | > 100
Nc1[nH]nc2nc3ccc(C(F)(F)F)cc3nc12 | 57.1 |  | > 100 | > 100 | > 100 | 42.6 | > 100 | 50.8 | > 100 | > 100
CN(C)c1ccc(C2SCC(=O)N2c2ccc(Oc3ccc(Cl)cc3)c(Cl)c2)cc1 (stereo not given) |  | > 100 | 32.7 | 54.8 | 69 | > 100 | > 100 | 39.5 | 37.9 | 69
Cn1c2ccccc2c(=O)c2cccc(C(=O)NC(CCCN=C(N)N)C(=O)O)c21 (stereo not given) |  | > 100 | > 100 | > 100 | > 100 | > 100 | > 100 | > 100 | > 100 | > 100
CC1CCCC(CC(=O)O)(CC(=O)O)C1 (stereo not given) |  | > 100 | > 100 | > 100 | > 100 | > 100 | > 100 | > 100 | > 100 | > 100
C=C1C(=O)C=C[C@]2(C)CC[C@H]3C(=C)C(=O)O[C@@H]3[C@@H]12 | 4.47 |  | 0.483 | 87.6 | 5.78 | 4.04 | 1.98 | 3.94 | 11.7 | 3.96
O=NN(CCCl)C(=O)NC1CCC(O)CC1 (stereo not given) | > 71.5 | > 100 | > 94.4 | > 100 | > 100 | 63.4 |  | > 60.6 | 43.3 | 
CCNC(=O)Nc1cccc(NC(=O)NCC)n1 | > 100 | > 100 | > 100 | > 100 | > 100 | > 100 | > 100 |  | > 100 | > 100
CC1=C(CO)C(=O)O[C@@H]([C@@H](CO)[C@H]2CCC3C4C[C@@H](O)[C@@]5(O)CC=CC(=O)[C@]5(C)C4CC[C@@]32C)C1 (stereo not given in full) | 92.9 | > 100 | > 100 | > 100 | > 100 |  | > 100 | > 100 | > 100 | > 100
Cc1ccc(S(=O)(=O)C(C#N)c2nc3ccccc3nc2-n2ccnc2)cc1 (stereo not given) |  | > 100 | > 100 | > 100 | > 100 | > 100 | > 100 |  | > 100 | > 100
